Results as given in ChEMBL document CHEMBL2203184, “Synthesis of novel triplet drugs with 1,3,5-trioxazatriquinane skeletons and their pharmacologies. 3: synthesis of novel triplet drugs with the bis(epoxymethano) or bis(dimethylepoxymethano) structure (double-capped triplet)” (Bioorg Med Chem Lett, 2012).

What was measured:
[1] = target: Kappa-type opioid receptor (Cavia porcellus, UniProt P41144); experiment: Displacement of [3H]U-69,593 from kappa opioid receptor in guinea pig cerebellum
[2] = target: Delta-type opioid receptor (Mus musculus, UniProt P32300); experiment: Displacement of [3H]DPDPE from delta opioid receptor in mouse whole brain without cerebellum
Delta-type opioid receptor, sequence (P32300 whole entry): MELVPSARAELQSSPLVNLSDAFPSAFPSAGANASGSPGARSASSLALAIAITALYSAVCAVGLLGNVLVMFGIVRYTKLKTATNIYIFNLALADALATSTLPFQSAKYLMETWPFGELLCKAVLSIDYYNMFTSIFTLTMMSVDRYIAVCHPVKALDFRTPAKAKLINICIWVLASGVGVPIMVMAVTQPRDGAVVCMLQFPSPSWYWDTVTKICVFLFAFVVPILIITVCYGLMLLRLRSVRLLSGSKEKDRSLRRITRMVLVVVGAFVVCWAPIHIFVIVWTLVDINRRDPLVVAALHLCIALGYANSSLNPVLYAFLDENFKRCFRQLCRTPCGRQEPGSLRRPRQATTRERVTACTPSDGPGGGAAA

Mu-type opioid receptor [3] = target: Mu-type opioid receptor (Mus musculus, UniProt P42866); experiment: Displacement of [3H]DAMGO from mu opioid receptor in mouse whole brain without cerebellum
Mu-type opioid receptor (Mus musculus, UniProt P42866), sequence (P42866 whole entry): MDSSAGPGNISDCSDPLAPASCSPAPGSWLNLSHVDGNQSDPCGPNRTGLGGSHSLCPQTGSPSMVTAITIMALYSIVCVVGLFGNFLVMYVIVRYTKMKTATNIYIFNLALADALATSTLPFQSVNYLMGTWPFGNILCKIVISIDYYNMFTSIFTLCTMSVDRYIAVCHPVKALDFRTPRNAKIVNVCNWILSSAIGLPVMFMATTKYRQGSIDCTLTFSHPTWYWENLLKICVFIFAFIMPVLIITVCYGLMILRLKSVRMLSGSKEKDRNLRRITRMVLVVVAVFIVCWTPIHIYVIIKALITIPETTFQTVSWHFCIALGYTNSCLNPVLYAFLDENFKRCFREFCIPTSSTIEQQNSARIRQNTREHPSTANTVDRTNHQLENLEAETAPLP

[4] = Selectivity ratio of Ki for kappa opioid receptor in guinea pig cerebellum to Ki for mu opioid receptor in mouse whole brain without cerebellum
Mus musculus = organism: Mus musculus; experiment: Selectivity ratio of Ki for delta opioid receptor in mouse whole brain without cerebellum to Ki for mu opioid receptor in mouse whole brain without cerebellum
[5] = Selectivity ratio of Ki for mu opioid receptor in mouse whole brain without cerebellum to Ki for kappa opioid receptor in guinea pig cerebellum
[6] = Selectivity ratio of Ki for delta opioid receptor in mouse whole brain without cerebellum to Ki for kappa opioid receptor in guinea pig cerebellum
[7] = target: T1, Kappa-type opioid receptor (Homo sapiens, UniProt P41145); experiment: Agonist activity at human kappa opioid receptor expressed in CHO cells assessed as [35S]GTPgammaS binding after 2 hrs by liquid scintillation counting relative to U-69,593; format: functional, cell-based
T1 sequence (P41145 whole entry): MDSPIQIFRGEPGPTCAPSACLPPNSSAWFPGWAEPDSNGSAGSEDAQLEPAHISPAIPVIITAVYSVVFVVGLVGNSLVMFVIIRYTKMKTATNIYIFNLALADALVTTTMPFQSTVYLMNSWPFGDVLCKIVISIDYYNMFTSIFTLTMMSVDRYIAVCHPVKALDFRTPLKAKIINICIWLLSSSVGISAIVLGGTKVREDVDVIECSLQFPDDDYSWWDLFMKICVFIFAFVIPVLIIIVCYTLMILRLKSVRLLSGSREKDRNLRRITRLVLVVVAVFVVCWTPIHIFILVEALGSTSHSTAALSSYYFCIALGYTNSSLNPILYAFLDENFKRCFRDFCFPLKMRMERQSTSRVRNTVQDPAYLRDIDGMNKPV

[8] = target: T1, Kappa-type opioid receptor; experiment: Agonist activity at human kappa opioid receptor expressed in CHO cells assessed as [35S]GTPgammaS binding after 2 hrs by liquid scintillation counting; format: functional, cell-based
Mu-type opioid receptor [9] = target: T2, Mu-type opioid receptor (Homo sapiens, UniProt P35372); experiment: Agonist activity at human mu opioid receptor expressed in CHO cells assessed as [35S]GTPgammaS binding after 2 hrs by liquid scintillation counting relative to DAMGO; format: functional, cell-based
T2 sequence (P35372 whole entry): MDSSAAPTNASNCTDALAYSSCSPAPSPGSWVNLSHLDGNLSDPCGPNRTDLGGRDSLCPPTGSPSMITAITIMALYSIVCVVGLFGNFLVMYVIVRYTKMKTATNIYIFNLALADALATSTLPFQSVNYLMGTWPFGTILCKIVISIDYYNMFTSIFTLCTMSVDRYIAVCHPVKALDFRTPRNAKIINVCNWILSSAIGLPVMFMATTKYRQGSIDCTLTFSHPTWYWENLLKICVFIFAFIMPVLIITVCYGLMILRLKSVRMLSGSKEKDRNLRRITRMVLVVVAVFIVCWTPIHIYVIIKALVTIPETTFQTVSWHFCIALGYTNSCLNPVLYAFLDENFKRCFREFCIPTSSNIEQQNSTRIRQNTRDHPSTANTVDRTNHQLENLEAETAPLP

Mu-type opioid receptor [10] = target: T2, Mu-type opioid receptor; experiment: Agonist activity at human mu opioid receptor expressed in CHO cells assessed as [35S]GTPgammaS binding after 2 hrs by liquid scintillation counting; format: functional, cell-based

Kappa-type opioid receptor (Cavia porcellus, UniProt P41144), sequence (P41144 whole entry): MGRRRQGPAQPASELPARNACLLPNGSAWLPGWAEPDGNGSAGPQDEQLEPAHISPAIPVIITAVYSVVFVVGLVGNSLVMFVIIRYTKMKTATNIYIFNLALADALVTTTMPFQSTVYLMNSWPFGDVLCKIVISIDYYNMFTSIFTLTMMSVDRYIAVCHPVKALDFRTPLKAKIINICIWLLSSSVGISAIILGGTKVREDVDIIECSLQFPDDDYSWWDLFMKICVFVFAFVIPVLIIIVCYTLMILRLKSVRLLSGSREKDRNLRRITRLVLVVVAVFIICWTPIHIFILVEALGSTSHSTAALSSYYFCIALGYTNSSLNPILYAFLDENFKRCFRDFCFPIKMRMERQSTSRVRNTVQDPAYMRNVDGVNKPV

Row | SMILES | Ki [1] [nM] | Ki [2] [nM] | Ki (Mu-type opioid receptor [3]) [nM] | Ratio Ki [4] | Ratio Ki (Mus musculus) | Ratio Ki [5] | Ratio Ki [6] | Emax [7] [%] | EC50 [8] [nM] | Emax (Mu-type opioid receptor [9]) [%] | EC50 (Mu-type opioid receptor [10]) [nM]
1 | Oc1ccc2c3c1O[C@H]1[C@]4(CC[C@@]5(O)[C@@H](C2)N(Cc2ccccc2)CC[C@]315)O[C@@H]1CO[C@@H]2CO[C@H]4N21 | > 1000 | > 1000 | > 1000 | – | – | – | – | – | – | – | –
2 | CC1(C)O[C@H]2N3[C@@H]1O[C@]1(CC[C@@]4(O)[C@H]5Cc6ccc(O)c7c6[C@@]4(CCN5Cc4ccccc4)[C@H]1O7)[C@H]3OC2(C)C | > 1000 | > 1000 | 450 | > 2.22 | > 2.22 | < 0.45 | – | – | – | – | –
3 | CC(C)CN1CC[C@]23c4c5ccc(O)c4O[C@H]2[C@]2(CC[C@@]3(O)[C@H]1C5)O[C@H]1N3[C@H](OC1(C)C)C(C)(C)O[C@@H]32 | > 1000 | > 1000 | 88.1 | > 11.4 | > 11.4 | < 0.088 | – | – | – | – | –
4 | CC(C)CN1CC[C@]23c4c5ccc(O)c4O[C@H]2[C@]2(CC[C@@]3(O)[C@H]1C5)O[C@@H]1N3[C@@H](OC1(C)C)C(C)(C)O[C@H]32 | > 1000 | 541 | 134 | > 7.46 | 4.04 | < 0.134 | < 0.541 | – | – | – | –
5 | Oc1ccc2c3c1O[C@H]1[C@]4(CC[C@@]5(O)[C@@H](C2)N(CC2CC2)CC[C@]315)O[C@@H]1CO[C@@H]2CO[C@H]4N21 | 3.86 | 99.8 | 8.65 | 0.446 | 11.5 | 2.24 | 25.9 | 70 | 25 | – | –
6 | CC1(C)O[C@H]2N3[C@@H]1O[C@]1(CC[C@@]4(O)[C@H]5Cc6ccc(O)c7c6[C@@]4(CCN5CC4CC4)[C@H]1O7)[C@H]3OC2(C)C | 7.89 | 71.8 | 2.14 | 3.69 | 33.6 | 0.271 | 9.1 | – | – | – | –
7 | CN1CC[C@]23c4c5ccc(O)c4O[C@H]2[C@]2(CC[C@@]3(O)[C@H]1C5)O[C@@H]1CO[C@@H]3CO[C@H]2N31 | 109 | 171 | 2.34 | 46.6 | 73.1 | 0.0214 | 1.57 | – | – | – | –
8 | CC(C)CN1CC[C@]23c4c5ccc(O)c4O[C@H]2[C@]2(CC[C@@]3(O)[C@H]1C5)O[C@@H]1CO[C@@H]3CO[C@H]2N31 | > 1000 | 79.1 | 99.1 | > 10.1 | 0.798 | < 0.099 | < 0.079 | – | – | – | –
9 | CN1CC[C@]23c4c5ccc(O)c4O[C@H]2[C@]2(CC[C@@]3(O)[C@H]1C5)O[C@H]1N3[C@H](OC1(C)C)C(C)(C)O[C@@H]32 | > 1000 | 79.1 | 1.85 | > 541 | 42.8 | < 0.0019 | < 0.079 | – | – | 79.1 | 6
10 | CN1CC[C@]23c4c5ccc(O)c4O[C@H]2[C@]2(CC[C@@]3(O)[C@H]1C5)O[C@H]1CO[C@H]3CO[C@@H]2N31 | > 1000 | 133 | 2.38 | > 420 | 55.9 | < 0.0024 | < 0.133 | – | – | – | –
11 | CC1(C)O[C@@H]2N3[C@H]1O[C@]1(CC[C@@]4(O)[C@H]5Cc6ccc(O)c7c6[C@@]4(CCN5Cc4ccccc4)[C@H]1O7)[C@@H]3OC2(C)C | > 1000 | > 1000 | > 1000 | – | – | – | – | – | – | – | –
12 | CC(C)CN1CC[C@]23c4c5ccc(O)c4O[C@H]2[C@]2(CC[C@@]3(O)[C@H]1C5)O[C@H]1CO[C@H]3CO[C@@H]2N31 | > 1000 | 848 | 85.7 | > 11.7 | 9.89 | < 0.086 | < 0.848 | – | – | – | –
13 | Oc1ccc2c3c1O[C@H]1[C@]4(CC[C@@]5(O)[C@@H](C2)N(Cc2ccccc2)CC[C@]315)O[C@H]1CO[C@H]2CO[C@@H]4N21 | > 1000 | 84 | 581 | > 1.72 | 0.145 | < 0.581 | < 0.084 | – | – | – | –
14 | Oc1ccc2c3c1O[C@H]1[C@]4(CC[C@@]5(O)[C@@H](C2)N(CC2CC2)CC[C@]315)O[C@H]1CO[C@H]2CO[C@@H]4N21 | 5.95 | 78.6 | 6.85 | 0.869 | 11.5 | 1.15 | 13.2 | – | – | – | –
15 | CN1CC[C@]23c4c5ccc(O)c4O[C@H]2[C@]2(CC[C@@]3(O)[C@H]1C5)O[C@@H]1N3[C@@H](OC1(C)C)C(C)(C)O[C@H]32 | > 1000 | 9.78 | 2.67 | > 375 | 3.66 | < 0.0027 | < 0.0098 | – | – | – | –
16 | CC1(C)O[C@@H]2N3[C@H]1O[C@]1(CC[C@@]4(O)[C@H]5Cc6ccc(O)c7c6[C@@]4(CCN5CC4CC4)[C@H]1O7)[C@@H]3OC2(C)C | 24.2 | 22 | 5.35 | 4.52 | 4.11 | 0.221 | 0.909 | – | – | – | –
